This is an account of results in US20210255193A1, “LYSINE REACTIVE PROBES AND USES THEREOF” (The Scripps Research Institute, priority 2017, published 2021).

The structures appear in SMILES notation.

What all share (test): competitive isoTOP-ABPP
Common to all, as to format: binding

Assay [1] addresses T1, RINT1 RAD50-interacting protein 1 (Homo sapiens, UniProt Q6NUQ1).
T1 construct: isoTOP-ABPP experiments performed in cell lysates (in vitro); endogenous in cells; host or cells: soluble proteome of human cancer cell lines (MDA-MB-231; Ramos and Jurkat also prepared)
The conditions noted are these: 50 uM, 231 sol, in vitro; for R value (DMSO/fragment) for probe 1 labeling: Q6NUQ1_K771. The gist of the method: (§1)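 Fragments at 50 μM (activated esters) or 100 μM (guanidinylating agents) were incubated with 0.5 ml lysate before probe labeling. After 0.1 mM STP-alkyne for 1 h, samples were clicked to isotopically distinct TEV tags, and R taken as DMSO-over-compound MS1 peak-area ratio.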

Assay [2] concerns the target T2, MRPS24 28S ribosomal protein S24, mitochondrial (Homo sapiens, UniProt Q96EL2).
T2 construct: isoTOP-ABPP experiments performed in cell lysates (in vitro); endogenous in cells; host or cells: soluble proteome of human cancer cell lines (MDA-MB-231; Ramos and Jurkat also prepared)
The conditions noted are these: 50 uM, 231 sol, in vitro; for R value (DMSO/fragment) for probe 1 labeling: Q96EL2_K94. The gist of the method: as §1

Assay [3] addresses T3, RPL10 60S ribosomal protein L10 (Homo sapiens, UniProt P27635).
T3 construct: isoTOP-ABPP experiments performed in cell lysates (in vitro); endogenous in cells; host or cells: soluble proteome of human cancer cell lines (MDA-MB-231; Ramos and Jurkat also prepared)
The conditions noted are these: 50 uM, 231 sol, in vitro; for R value (DMSO/fragment) for probe 1 labeling: P27635_K121. In short, it runs like this:
as §1

Assay [4] has as its target T4, LMNA Prelamin-A/C (Homo sapiens, UniProt P02545).
T4 construct: isoTOP-ABPP experiments performed in cell lysates (in vitro); endogenous in cells; host or cells: MDA-MB-231 soluble lysate
T4 sequence (P02545 1-664): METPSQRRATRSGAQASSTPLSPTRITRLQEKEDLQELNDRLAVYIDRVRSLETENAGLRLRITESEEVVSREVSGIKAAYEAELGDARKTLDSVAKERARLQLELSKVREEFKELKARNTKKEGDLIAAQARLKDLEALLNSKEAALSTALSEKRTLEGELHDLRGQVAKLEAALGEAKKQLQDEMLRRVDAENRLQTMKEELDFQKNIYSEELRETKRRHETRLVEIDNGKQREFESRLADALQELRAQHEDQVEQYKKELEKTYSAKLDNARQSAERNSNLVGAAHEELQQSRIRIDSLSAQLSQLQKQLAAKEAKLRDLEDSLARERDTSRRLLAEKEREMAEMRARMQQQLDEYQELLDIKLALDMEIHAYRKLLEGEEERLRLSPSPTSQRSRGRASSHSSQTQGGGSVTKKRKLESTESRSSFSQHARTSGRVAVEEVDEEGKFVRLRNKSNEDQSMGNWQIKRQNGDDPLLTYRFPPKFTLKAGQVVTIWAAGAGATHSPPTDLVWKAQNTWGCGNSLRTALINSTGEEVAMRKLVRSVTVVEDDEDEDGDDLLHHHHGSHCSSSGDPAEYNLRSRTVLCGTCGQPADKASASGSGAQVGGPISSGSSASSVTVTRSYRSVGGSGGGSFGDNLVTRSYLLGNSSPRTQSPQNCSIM
The following applies: 50 uM, 231 sol, in vitro; for R value (DMSO/fragment) for probe 1 labeling: P02545_K135. In short, it runs like this:
as §1

Assay [5] addresses T5, WARS Tryptophan--tRNA ligase, cytoplasmic (Homo sapiens, UniProt P23381).
T5 construct: isoTOP-ABPP experiments performed in cell lysates (in vitro); endogenous in cells; host or cells: soluble proteome of human cancer cell lines (MDA-MB-231; Ramos and Jurkat also prepared)
T5 sequence (P23381 1-471): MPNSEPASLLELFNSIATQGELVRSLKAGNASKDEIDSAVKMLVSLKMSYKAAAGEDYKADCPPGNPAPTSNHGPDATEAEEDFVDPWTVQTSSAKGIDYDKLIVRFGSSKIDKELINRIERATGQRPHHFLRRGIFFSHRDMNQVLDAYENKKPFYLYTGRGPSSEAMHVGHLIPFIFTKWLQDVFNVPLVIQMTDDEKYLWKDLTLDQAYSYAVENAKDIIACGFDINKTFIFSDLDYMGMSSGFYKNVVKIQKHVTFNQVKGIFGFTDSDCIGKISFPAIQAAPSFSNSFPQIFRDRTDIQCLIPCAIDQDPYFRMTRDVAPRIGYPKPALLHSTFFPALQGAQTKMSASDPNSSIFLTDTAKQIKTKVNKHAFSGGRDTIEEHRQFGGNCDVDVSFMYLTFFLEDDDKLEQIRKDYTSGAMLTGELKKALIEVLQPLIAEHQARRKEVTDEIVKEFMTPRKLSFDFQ
The following applies: 50 uM, 231 sol, in vitro; for R value (DMSO/fragment) for probe 1 labeling: P23381_K256. The gist of the method:
as §1

T1 sequence (Q6NUQ1 whole entry): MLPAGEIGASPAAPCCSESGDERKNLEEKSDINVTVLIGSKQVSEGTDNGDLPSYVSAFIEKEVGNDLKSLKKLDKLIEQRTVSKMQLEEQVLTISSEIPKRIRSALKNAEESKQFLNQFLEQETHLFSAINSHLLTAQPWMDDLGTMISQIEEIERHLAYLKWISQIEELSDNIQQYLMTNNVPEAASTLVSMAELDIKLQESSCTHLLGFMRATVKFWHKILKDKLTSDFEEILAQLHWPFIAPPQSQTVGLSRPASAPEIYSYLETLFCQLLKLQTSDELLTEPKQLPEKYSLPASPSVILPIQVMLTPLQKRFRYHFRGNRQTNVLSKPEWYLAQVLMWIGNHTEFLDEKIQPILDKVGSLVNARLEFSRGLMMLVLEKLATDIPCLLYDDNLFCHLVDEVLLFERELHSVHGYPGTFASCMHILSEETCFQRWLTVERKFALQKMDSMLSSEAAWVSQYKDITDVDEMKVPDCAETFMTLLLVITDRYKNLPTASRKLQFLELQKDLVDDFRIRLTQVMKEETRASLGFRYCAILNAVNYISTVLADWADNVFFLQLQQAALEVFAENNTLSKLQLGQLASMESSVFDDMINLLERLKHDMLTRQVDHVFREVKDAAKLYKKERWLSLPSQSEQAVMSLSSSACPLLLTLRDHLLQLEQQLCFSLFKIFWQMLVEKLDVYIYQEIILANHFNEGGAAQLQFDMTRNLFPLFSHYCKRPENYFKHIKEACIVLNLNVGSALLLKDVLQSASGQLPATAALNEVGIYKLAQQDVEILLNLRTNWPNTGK

Turning to `O=C(CCc1cn(-c2ccccc2)nc1-c1ccccc1)Oc1c(F)c(F)c(F)c(F)c1F` [fragment 19, Pentafluorophenyl 3-(1,3-diphenyl-1H-pyrazol-4-yl)propanoate], the “R value (DMSO/fragment) for probe 1 labeling” value (shortened to “R value (DMSO/fragment)”) in assay [1] is 1.2; in assay [2], 1.4; in assay [3], 0.9; in assay [4], 1.1; in assay [5] it was 1.2.
`O=C(Oc1c(F)c(F)c(F)c(F)c1F)C(c1ccccc1)c1ccccc1` [fragment 20, Pentafluorophenyl 2,2-diphenylacetate]: the “R value (DMSO/fragment)” value in assay [1] is listed as 1.0; in assay [2] it was 0.9; in assay [3], 0.7; in assay [4], 1.0; in assay [5], 1.3.
On to `O=C(Oc1c(F)c(F)c(F)c(F)c1F)c1cc(C(F)(F)F)cc(C(F)(F)F)c1` [fragment 21, Pentafluorophenyl 3,5-bis(trifluoromethyl)benzoate], for which the “R value (DMSO/fragment)” value in assay [1] is given as 2.2; in assay [2], 0.8; in assay [3] it was 0.8; in assay [4], 1.0; in assay [5] it was 1.1.
For the molecule `COc1cc(CCC(=O)Oc2c(F)c(F)c(F)c(F)c2F)cc(OC)c1OC` [fragment 23, Pentafluorophenyl 3-(3,4,5-trimethoxyphenyl)propanoate], the “R value (DMSO/fragment)” value in assay [1] is 1.1; in assay [2], 2.1; in assay [4], 0.9.
On to `O=C(Oc1c(F)c(F)c(F)c(F)c1F)C1CCN(C(=O)OCc2ccccc2)CC1` [fragment 24, 1-Benzyl 4-(pentafluorophenyl) piperidine-1,4-dicarboxylate], for which the “isoTOP-ABPP reactivity ratio at lysine Q6NUQ1_K771” value in assay [1] was determined as 1.0. Also, the “isoTOP-ABPP reactivity ratio at lysine Q96EL2_K94” value in assay [2] is reported as 1.5.
For `O=C(Oc1c(F)c(F)c(F)c(F)c1F)c1ccc2ccccc2n1` [fragment 25, Pentafluorophenyl quinoline-2-carboxylate], the “isoTOP-ABPP reactivity ratio at lysine Q6NUQ1_K771” value in assay [1] was 1.4. In assay [2], the “isoTOP-ABPP reactivity ratio at lysine Q96EL2_K94” value is 1.3. Moreover, in assay [4], the “isoTOP-ABPP reactivity ratio at lysine P02545_K135” value was determined as 0.9. Further, the “isoTOP-ABPP reactivity ratio at lysine P23381_K256” value in assay [5] is recorded as 4.4.
Turning to `O=C(CCc1coc2cc(F)ccc2c1=O)Oc1c(F)c(F)c(F)c(F)c1F` [fragment 26, Pentafluorophenyl 3-(7-fluoro-4-oxo-4H-chromen-3-yl)propanoate], the “isoTOP-ABPP reactivity ratio at lysine Q6NUQ1_K771” value in assay [1] came to 0.9. Moreover, the “isoTOP-ABPP reactivity ratio at lysine Q96EL2_K94” value in assay [2] was 2.7. Moreover, the “isoTOP-ABPP reactivity ratio at lysine P27635_K121” value in assay [3] was 0.9. The “isoTOP-ABPP reactivity ratio at lysine P23381_K256” value in assay [5] was found to be 2.3.
With `O=C(CN1C(=O)c2ccccc2C1=O)Oc1c(F)c(F)c(F)c(F)c1F` [fragment 27, Pentafluorophenyl 2-(1,3-dioxoisoindolin-2-yl)acetate], the “isoTOP-ABPP reactivity ratio at lysine Q6NUQ1_K771” value in assay [1] was determined as 1.1. In addition, the “isoTOP-ABPP reactivity ratio at lysine Q96EL2_K94” value in assay [2] was 2.0. The “isoTOP-ABPP reactivity ratio at lysine P23381_K256” value in assay [5] is listed as 2.7.
On the same counts, the results for `CCn1cc(C(=O)Oc2c(F)c(F)c(F)c(F)c2F)c(=O)c2ccc(C)nc21` [fragment 28, Pentafluorophenyl 1-ethyl-7-methyl-4-oxo-1,4-dihydro-1,8-naphthyridine-3-carboxylate] are 0.8, 1.0 and 1.0.
